Laboratory results: patent US10385031B2, “Substituted piperazines as selective HDAC1,2 inhibitors” (Regenacy Pharmaceuticals, LLC, priority 2016, dated 2019)

Target: HDAC3 (Homo sapiens (Human), UniProt O15379)
Assay: HDAC enzyme assay HDAC3
Format: biochemical
Settings: not given
Description: Compounds for testing were diluted in DMSO to 50 fold the final concentration and a ten-point three-fold dilution series was made. The compounds were diluted in assay buffer (50 mM HEPES, pH 7.4, 100 mM KCl, 0.001% Tween-20, 0.05% BSA, 20 μM TCEP) to 6-fold their final concentration. The HDAC enzymes (purchased from BPS Biosciences) were diluted to 1.5-fold their final concentration in assay buffer. The tripeptide substrate and trypsin at 0.05 μM final concentration were diluted in assay buffer at 6-fold their final concentration. The final enzyme concentrations used in these assays were 3.3 ng/ml (HDAC1), 0.2 ng/ml (HDAC2) and 0.08 ng/ml (HDAC3). The final substrate concentrations used were 16 μM (HDAC1), 10 μM (HDAC2) and 17 μM (HDAC3). Five μl of compounds and 20 μl of enzyme were added to wells of a black, opaque 384 well plate in duplicate. Enzyme and compound were incubated together at room temperature for 10 minutes. Five μl of substrate was added to each well, the plate was shaken for 60 seconds and placed into a Victor 2 microtiter plate reader. The development of fluorescence was monitored for 60 min and the linear rate of the reaction was calculated. The IC50 was determined using Graph Pad Prism by a four parameter curve fit. In Table 4 below, letter designations are defined as follows: […]

Chain of HDAC3 (O15379 whole entry): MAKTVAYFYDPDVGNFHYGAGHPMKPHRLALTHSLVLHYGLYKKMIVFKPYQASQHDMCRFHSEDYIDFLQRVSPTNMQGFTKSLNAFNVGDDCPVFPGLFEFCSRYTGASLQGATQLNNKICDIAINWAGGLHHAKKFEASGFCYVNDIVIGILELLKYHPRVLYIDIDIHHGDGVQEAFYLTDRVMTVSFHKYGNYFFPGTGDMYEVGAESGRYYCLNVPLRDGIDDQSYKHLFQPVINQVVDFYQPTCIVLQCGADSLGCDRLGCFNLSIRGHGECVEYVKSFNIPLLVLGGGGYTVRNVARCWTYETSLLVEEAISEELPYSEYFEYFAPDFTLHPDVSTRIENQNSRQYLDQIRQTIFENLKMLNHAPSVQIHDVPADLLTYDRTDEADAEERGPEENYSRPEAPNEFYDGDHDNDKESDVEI
Chain of HDAC3 (Q9Y618 395-489 partner): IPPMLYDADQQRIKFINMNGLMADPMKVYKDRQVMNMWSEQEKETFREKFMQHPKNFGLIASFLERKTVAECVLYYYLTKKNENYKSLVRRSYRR

| IC50 [nM] | SMILES |
| --- | --- |
| > 500 | Nc1ccc(-c2cccs2)cc1NC(=O)c1cnc(N2CCNCC2)o1 [Compound 060] |
| > 500 | Nc1ccc(-c2ccco2)cc1NC(=O)c1cnc(N2CCNCC2)o1 [Compound 061] |
| > 500 | Nc1ccc(-c2ccccc2)cc1NC(=O)c1cnc(N2CCNCC2)o1 [Compound 062] |
| > 500 | Nc1ccc(-c2ccc(F)cc2)cc1NC(=O)c1cnc(N2CCNCC2)o1 [Compound 063] |
| 10 to 500 | Nc1ccc(-c2ccccc2)cc1NC(=O)c1ccc(N2CCNCC2)s1 [Compound 064] |
| 10 to 500 | Nc1ccc(-c2ccco2)cc1NC(=O)c1ccc(N2CCNCC2)s1 [Compound 065] |
| 10 to 500 | Nc1ccc(-c2ccoc2)cc1NC(=O)c1ccc(N2CCNCC2)s1 [Compound 066] |
| 10 to 500 | Nc1ccc(-c2ccncc2)cc1NC(=O)c1ccc(N2CCNCC2)s1 [Compound 067] |
| 10 to 500 | CN1CCN(c2ccc(C(=O)Nc3cc(-c4cccs4)ccc3N)cn2)CC1 [Compound 071] |

| SMILES | IC50 [nM] |
| --- | --- |
| Nc1ccc(-c2cccs2)cc1NC(=O)c1csc(N2CCNCC2)n1 [Compound 059] | 10 to 500 |

Target: HDAC2 (Homo sapiens (Human), UniProt Q92769)
Sequence (Q92769 whole entry): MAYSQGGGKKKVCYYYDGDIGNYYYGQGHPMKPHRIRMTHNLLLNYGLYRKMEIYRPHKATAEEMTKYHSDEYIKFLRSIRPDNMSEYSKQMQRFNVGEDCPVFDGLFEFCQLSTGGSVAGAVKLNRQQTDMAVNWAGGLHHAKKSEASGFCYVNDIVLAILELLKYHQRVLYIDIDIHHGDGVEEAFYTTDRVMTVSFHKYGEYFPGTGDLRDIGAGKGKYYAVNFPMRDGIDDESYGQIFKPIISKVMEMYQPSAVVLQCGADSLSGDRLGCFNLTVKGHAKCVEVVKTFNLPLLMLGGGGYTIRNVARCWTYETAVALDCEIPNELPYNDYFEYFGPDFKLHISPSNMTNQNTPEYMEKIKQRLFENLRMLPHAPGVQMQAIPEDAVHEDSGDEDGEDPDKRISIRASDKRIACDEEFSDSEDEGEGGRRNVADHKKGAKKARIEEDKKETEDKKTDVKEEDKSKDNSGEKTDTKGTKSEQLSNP
Assay: HDAC enzyme assay HDAC2
Format: biochemical
Settings: not given
Description: Compounds for testing were diluted in DMSO to 50 fold the final concentration and a ten-point three-fold dilution series was made. The compounds were diluted in assay buffer (50 mM HEPES, pH 7.4, 100 mM KCl, 0.001% Tween-20, 0.05% BSA, 20 μM TCEP) to 6-fold their final concentration. The HDAC enzymes (purchased from BPS Biosciences) were diluted to 1.5-fold their final concentration in assay buffer. The tripeptide substrate and trypsin at 0.05 μM final concentration were diluted in assay buffer at 6-fold their final concentration. The final enzyme concentrations used in these assays were 3.3 ng/ml (HDAC1), 0.2 ng/ml (HDAC2) and 0.08 ng/ml (HDAC3). The final substrate concentrations used were 16 μM (HDAC1), 10 μM (HDAC2) and 17 μM (HDAC3).
Five μl of compounds and 20 μl of enzyme were added to wells of a black, opaque 384 well plate in duplicate. Enzyme and compound were incubated together at room temperature for 10 minutes. Five μl of substrate was added to each well, the plate was shaken for 60 seconds and placed into a Victor 2 microtiter plate reader. The development of fluorescence was monitored for 60 min and the linear rate of the reaction was calculated. The IC50 was determined using Graph Pad Prism by a four parameter curve fit.

| IC50 [nM] | SMILES |
| --- | --- |
| > 500 | Nc1ccc(-c2cccs2)cc1NC(=O)c1cnc(N2CCNCC2)o1 [Compound 060] |
| > 500 | Nc1ccc(-c2ccco2)cc1NC(=O)c1cnc(N2CCNCC2)o1 [Compound 061] |
| > 500 | Nc1ccc(-c2ccccc2)cc1NC(=O)c1cnc(N2CCNCC2)o1 [Compound 062] |
| > 500 | Nc1ccc(-c2ccc(F)cc2)cc1NC(=O)c1cnc(N2CCNCC2)o1 [Compound 063] |
| 10 to 500 | Nc1ccc(-c2ccccc2)cc1NC(=O)c1ccc(N2CCNCC2)s1 [Compound 064] |
| 10 to 500 | Nc1ccc(-c2ccco2)cc1NC(=O)c1ccc(N2CCNCC2)s1 [Compound 065] |
| 10 to 500 | Nc1ccc(-c2ccoc2)cc1NC(=O)c1ccc(N2CCNCC2)s1 [Compound 066] |
| 10 to 500 | Nc1ccc(-c2ccncc2)cc1NC(=O)c1ccc(N2CCNCC2)s1 [Compound 067] |
| 10 to 500 | CN1CCN(c2ccc(C(=O)Nc3cc(-c4cccs4)ccc3N)cn2)CC1 [Compound 071] |

| SMILES | IC50 [nM] |
| --- | --- |
| Nc1ccc(-c2cccs2)cc1NC(=O)c1csc(N2CCNCC2)n1 [Compound 059] | 10 to 500 |

Target: HDAC1 (Homo sapiens (Human), UniProt Q13547)
Sequence (Q13547 whole entry): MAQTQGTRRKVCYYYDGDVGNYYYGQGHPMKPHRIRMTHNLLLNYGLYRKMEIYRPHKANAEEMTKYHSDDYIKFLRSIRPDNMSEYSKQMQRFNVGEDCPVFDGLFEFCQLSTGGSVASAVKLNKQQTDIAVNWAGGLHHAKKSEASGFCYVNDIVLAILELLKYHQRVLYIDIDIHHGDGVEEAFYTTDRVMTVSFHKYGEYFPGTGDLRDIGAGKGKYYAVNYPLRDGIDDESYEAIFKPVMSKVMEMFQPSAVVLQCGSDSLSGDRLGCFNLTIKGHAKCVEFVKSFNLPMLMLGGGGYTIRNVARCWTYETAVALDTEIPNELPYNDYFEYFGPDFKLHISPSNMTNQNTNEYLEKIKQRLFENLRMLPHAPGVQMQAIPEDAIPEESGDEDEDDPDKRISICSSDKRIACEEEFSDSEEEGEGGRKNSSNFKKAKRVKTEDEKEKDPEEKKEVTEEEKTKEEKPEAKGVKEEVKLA
Assay: HDAC enzyme assay HDAC1
Format: biochemical
Settings: not given

| IC50 [nM] | SMILES |
| --- | --- |
| > 500 | Nc1ccc(-c2cccs2)cc1NC(=O)c1cnc(N2CCNCC2)o1 [Compound 060] |
| > 500 | Nc1ccc(-c2ccco2)cc1NC(=O)c1cnc(N2CCNCC2)o1 [Compound 061] |
| > 500 | Nc1ccc(-c2ccccc2)cc1NC(=O)c1cnc(N2CCNCC2)o1 [Compound 062] |
| > 500 | Nc1ccc(-c2ccc(F)cc2)cc1NC(=O)c1cnc(N2CCNCC2)o1 [Compound 063] |
| < 10 | Nc1ccc(-c2ccccc2)cc1NC(=O)c1ccc(N2CCNCC2)s1 [Compound 064] |
| < 10 | Nc1ccc(-c2ccco2)cc1NC(=O)c1ccc(N2CCNCC2)s1 [Compound 065] |
| < 10 | Nc1ccc(-c2ccoc2)cc1NC(=O)c1ccc(N2CCNCC2)s1 [Compound 066] |
| < 10 | Nc1ccc(-c2ccncc2)cc1NC(=O)c1ccc(N2CCNCC2)s1 [Compound 067] |

| SMILES | IC50 [nM] |
| --- | --- |
| Nc1ccc(-c2cccs2)cc1NC(=O)c1csc(N2CCNCC2)n1 [Compound 059] | > 500 |

System: not listed separately
Assay: Rat pharmacokinetics, cassette dosing (IV and PO)
Format: in vivo
Settings: rat, plasma, 5 mg/kg; male SD rats, oral AUC to IV AUC, dose adjusted
Description: Male SD rats were fasted overnight. Compounds of the invention were dissolved in dimethyl acetamide at 10 times the final concentration, then Solutol HS 15 (BASF) was added to a final concentration of 10%. Finally 80% saline was added and vortexed to achieve a clear solution. For the IV dosing three animals were injected via the foot dorsal vein with 1 mg/kg compound. For the PO dosing 5 mg/kg of compound was delivered by oral gavage. Blood was collected via the tail vein into K2EDTA tubes at 5 minutes, 15 minutes, 30 minutes, 1 hour, 2 hours, 4 hours, 8 hours and 24 hours after dosing. The blood was centrifuged at 2000 g for 5 minutes at 4° C. to obtain plasma. The plasma was extracted with acetonitrile and the level of compound was analyzed by LC/MS/MS. The level of compound in plasma was calculated from a standard curve in rat plasma. The IV clearance (L/h/kg) and area under the curve (h*ng/mL) were calculated using WinNonLin software. The dose adjusted area under the curve for the IV and oral dosing were used to calculate the oral bioavailability.
Pharmacokinetic properties were assessed in a rat cassette dosing experiment. The IV clearance (IV Clr.) is in units of L/hr/kg. The oral maximum plasma concentration (PO Cmax) is in units of ng/ml. The oral plasma half-life (PO T½) is in units of hours. The oral area under the curve (PO AUC) is in units of hours*ng/ml. The fraction absorbed by the oral route (F %) is a percentage of the oral area under the curve to the IV area under the curve, dose adjusted.

| bioavailability [%] | SMILES |
| --- | --- |
| 86.1 | Nc1ccc(-c2ccccc2)cc1NC(=O)c1ccc2nc(N3CCNCC3)ccc2c1 [Compound 002] |
| 90.8 | Nc1ccc(-c2ccoc2)cc1NC(=O)c1ccc2nc(N3CCNCC3)ccc2c1 [Compound 004] |
| 100 | Nc1ccc(-c2ccco2)cc1NC(=O)c1ccc(N2CCNCC2)nc1 [Compound 008] |
| 12.6 | Nc1ccc(-c2ccncc2)cc1NC(=O)c1ccc(N2CCNCC2)nc1 [Compound 010] |
| 93.9 | Nc1ccc(-c2cccs2)cc1NC(=O)c1ccc(N2CCNCC2)cc1 [Compound 012] |
| 105 | Nc1ccc(-c2ccco2)cc1NC(=O)c1ccc(N2CCNCC2)cc1 [Compound 013] |
| 97 | Nc1ccc(-c2ccoc2)cc1NC(=O)c1ccc(N2CCNCC2)cc1 [Compound 014] |
| 51.2 | Nc1ccc(-c2cccs2)cc1NC(=O)c1cnc2cc(N3CCNCC3)ccc2c1 [Compound 023] |
| 36.3 | Nc1ccc(-c2ccco2)cc1NC(=O)c1cnc2cc(N3CCNCC3)ccc2c1 [Compound 024] |
| 191 | Nc1ccc(-c2cccs2)cc1NC(=O)c1ccc(N2CCNCC2)s1 [Compound 033] |

Same assay, conditions: rat; male SD rats, IV 1 mg/kg, plasma

| IV clearance [mL/min/kg] | SMILES |
| --- | --- |
| 2 | Nc1ccc(-c2ccccc2)cc1NC(=O)c1ccc2nc(N3CCNCC3)ccc2c1 [Compound 002] |
| 0.667 | Nc1ccc(-c2ccoc2)cc1NC(=O)c1ccc2nc(N3CCNCC3)ccc2c1 [Compound 004] |
| 14.3 | Nc1ccc(-c2ccco2)cc1NC(=O)c1ccc(N2CCNCC2)nc1 [Compound 008] |
| 18.3 | Nc1ccc(-c2ccncc2)cc1NC(=O)c1ccc(N2CCNCC2)nc1 [Compound 010] |
| 8.83 | Nc1ccc(-c2cccs2)cc1NC(=O)c1ccc(N2CCNCC2)cc1 [Compound 012] |
| 13 | Nc1ccc(-c2ccco2)cc1NC(=O)c1ccc(N2CCNCC2)cc1 [Compound 013] |
| 11 | Nc1ccc(-c2ccoc2)cc1NC(=O)c1ccc(N2CCNCC2)cc1 [Compound 014] |
| 6 | Nc1ccc(-c2cccs2)cc1NC(=O)c1cnc2cc(N3CCNCC3)ccc2c1 [Compound 023] |
| 3.5 | Nc1ccc(-c2ccco2)cc1NC(=O)c1cnc2cc(N3CCNCC3)ccc2c1 [Compound 024] |
| 10.8 | Nc1ccc(-c2cccs2)cc1NC(=O)c1ccc(N2CCNCC2)s1 [Compound 033] |

Same assay, conditions: rat; male SD rats, PO 5 mg/kg, plasma

| AUC [ng·h/mL] | Cmax [ng/mL] | SMILES |
| --- | --- | --- |
| 34600 | 3750 | Nc1ccc(-c2ccccc2)cc1NC(=O)c1ccc2nc(N3CCNCC3)ccc2c1 [Compound 002] |
| 91900 | 10400 | Nc1ccc(-c2ccoc2)cc1NC(=O)c1ccc2nc(N3CCNCC3)ccc2c1 [Compound 004] |
| 5540 | 536 | Nc1ccc(-c2ccco2)cc1NC(=O)c1ccc(N2CCNCC2)nc1 [Compound 008] |
| 570 | 164 | Nc1ccc(-c2ccncc2)cc1NC(=O)c1ccc(N2CCNCC2)nc1 [Compound 010] |
| 8190 | 534 | Nc1ccc(-c2cccs2)cc1NC(=O)c1ccc(N2CCNCC2)cc1 [Compound 012] |
| 5780 | 425 | Nc1ccc(-c2ccco2)cc1NC(=O)c1ccc(N2CCNCC2)cc1 [Compound 013] |
| 7100 | 727 | Nc1ccc(-c2ccoc2)cc1NC(=O)c1ccc(N2CCNCC2)cc1 [Compound 014] |
| 6370 | 664 | Nc1ccc(-c2cccs2)cc1NC(=O)c1cnc2cc(N3CCNCC3)ccc2c1 [Compound 023] |
| 8220 | 1000 | Nc1ccc(-c2ccco2)cc1NC(=O)c1cnc2cc(N3CCNCC3)ccc2c1 [Compound 024] |
| 10700 | 614 | Nc1ccc(-c2cccs2)cc1NC(=O)c1ccc(N2CCNCC2)s1 [Compound 033] |

Same assay, conditions: rat; male SD rats, PO 5 mg/kg, plasma; read-out: PO T½ (converted)

| half-life [h] | SMILES |
| --- | --- |
| 5.9 | Nc1ccc(-c2ccccc2)cc1NC(=O)c1ccc2nc(N3CCNCC3)ccc2c1 [Compound 002] |
| 4.3 | Nc1ccc(-c2ccoc2)cc1NC(=O)c1ccc2nc(N3CCNCC3)ccc2c1 [Compound 004] |
| 5.6 | Nc1ccc(-c2ccco2)cc1NC(=O)c1ccc(N2CCNCC2)nc1 [Compound 008] |
| 4.7 | Nc1ccc(-c2ccncc2)cc1NC(=O)c1ccc(N2CCNCC2)nc1 [Compound 010] |
| 7.7 | Nc1ccc(-c2cccs2)cc1NC(=O)c1ccc(N2CCNCC2)cc1 [Compound 012] |
| 8.1 | Nc1ccc(-c2ccco2)cc1NC(=O)c1ccc(N2CCNCC2)cc1 [Compound 013] |
| 4.9 | Nc1ccc(-c2ccoc2)cc1NC(=O)c1ccc(N2CCNCC2)cc1 [Compound 014] |
| 8.5 | Nc1ccc(-c2cccs2)cc1NC(=O)c1cnc2cc(N3CCNCC3)ccc2c1 [Compound 023] |
| 4.4 | Nc1ccc(-c2ccco2)cc1NC(=O)c1cnc2cc(N3CCNCC3)ccc2c1 [Compound 024] |
| 13.7 | Nc1ccc(-c2cccs2)cc1NC(=O)c1ccc(N2CCNCC2)s1 [Compound 033] |
